We go through 22 compounds from patent US20140249135A1, “PIM KINASE INHIBITORS AND METHODS OF THEIR USE” (NOVARTIS AG, priority 2007, published 2014).

Where two headings read alike, the source gives them in different places.

Type in all cases: biochemical
The target in one assay is Pim1 kinase (Homo sapiens, UniProt P11309). The experiment in a line: Pim1 ATP depletion assay.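 Also: Luciferase-luciferin luminescence readout of residual ATP after PIM1 transfers phosphate to a peptide substrate, 40 µM ATP added, reaction run to roughly half ATP consumption.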
The target in a further assay is Pim2 kinase (Homo sapiens, UniProt Q9P1W9). As to the kind of experiment: Pim2 ATP depletion assay.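 Also: Luciferase-based luminescent readout of ATP remaining after PIM2 phosphorylates a BAD peptide, final 5 nM enzyme, 4 µM ATP, 10 µM peptide, 2.5% DMSO, run to roughly half ATP consumption.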 Conditions: read-out: IC50 (μM) PIM2.
The next assay deals with Pim3 kinase (Homo sapiens, UniProt Q86V86). As to the kind of experiment: Pim3 ATP depletion assay. Conditions: read-out: IC50 (μM) PIM3.
Assay [1] concerns the target T1, human full length PKCE enzyme (Homo sapiens, UniProt Q02156).
T1 construct: human full length PKCE enzyme purchased from InVitrogen; purchased InVitrogen
T1 sequence (Q02156 1-737): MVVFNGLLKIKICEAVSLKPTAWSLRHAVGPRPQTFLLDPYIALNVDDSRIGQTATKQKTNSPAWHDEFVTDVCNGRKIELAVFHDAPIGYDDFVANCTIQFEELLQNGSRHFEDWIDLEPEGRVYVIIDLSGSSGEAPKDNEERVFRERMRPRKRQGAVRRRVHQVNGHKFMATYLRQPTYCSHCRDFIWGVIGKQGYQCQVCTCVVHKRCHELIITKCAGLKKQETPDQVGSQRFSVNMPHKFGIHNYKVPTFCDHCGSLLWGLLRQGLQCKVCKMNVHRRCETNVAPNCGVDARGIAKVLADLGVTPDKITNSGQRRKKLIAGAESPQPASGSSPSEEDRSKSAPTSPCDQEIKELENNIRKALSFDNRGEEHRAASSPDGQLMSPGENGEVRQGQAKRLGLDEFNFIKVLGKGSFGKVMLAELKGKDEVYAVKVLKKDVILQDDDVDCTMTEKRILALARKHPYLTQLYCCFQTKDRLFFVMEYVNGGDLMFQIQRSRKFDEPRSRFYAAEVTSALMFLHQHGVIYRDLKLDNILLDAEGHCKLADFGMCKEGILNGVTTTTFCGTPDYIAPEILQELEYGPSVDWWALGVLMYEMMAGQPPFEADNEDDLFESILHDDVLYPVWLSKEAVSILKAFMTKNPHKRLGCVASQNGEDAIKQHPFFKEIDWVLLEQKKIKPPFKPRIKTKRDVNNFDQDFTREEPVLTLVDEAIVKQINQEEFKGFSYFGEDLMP
As to the kind of experiment: In vitro PKCE assay. Conditions: 10 nM enzyme, 40 uM peptide substrate, 20 uM ATP, KinaseGlo Plus readout; read-out: PKCε IC50. For orientation: Kinase-Glo measures the ATP left after a reaction by luminescence.

[2] abbreviates: Pim1 ATP depletion assay, read-out: IC50 (μM) PIM1.

Sequence of Pim1 kinase (P11309 whole entry): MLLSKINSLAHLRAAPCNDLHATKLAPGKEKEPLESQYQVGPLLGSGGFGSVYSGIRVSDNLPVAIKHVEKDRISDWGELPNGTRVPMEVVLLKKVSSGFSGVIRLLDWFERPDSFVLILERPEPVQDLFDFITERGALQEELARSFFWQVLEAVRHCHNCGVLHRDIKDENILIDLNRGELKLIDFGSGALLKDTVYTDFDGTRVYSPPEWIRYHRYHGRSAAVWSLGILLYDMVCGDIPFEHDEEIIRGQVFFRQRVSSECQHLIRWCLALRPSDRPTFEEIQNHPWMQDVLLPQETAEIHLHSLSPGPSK
Sequence of Pim2 kinase (Q9P1W9 whole entry): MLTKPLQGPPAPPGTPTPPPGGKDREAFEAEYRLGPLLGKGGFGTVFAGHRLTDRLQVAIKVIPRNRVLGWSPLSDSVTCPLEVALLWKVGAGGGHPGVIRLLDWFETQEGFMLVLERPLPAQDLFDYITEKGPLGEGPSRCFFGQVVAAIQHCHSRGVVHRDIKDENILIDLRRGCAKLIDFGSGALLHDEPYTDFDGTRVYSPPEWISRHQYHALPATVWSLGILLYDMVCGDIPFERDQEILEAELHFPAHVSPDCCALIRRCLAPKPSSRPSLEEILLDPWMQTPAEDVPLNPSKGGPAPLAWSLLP

A word on the IC50: it is the concentration that inhibits the measured activity by half. As for `Nc1nccnc1C(=O)Nc1cncnc1N1CCCCC1` [Example 128, 3-amino-N-(4-piperidin-1-yl-pyrimidin-5-yl)pyrazine-2-carboxamide], the concentration for half-maximal inhibition (IC50) is 1 to 10 µM at Pim1 kinase (setting [2]), greater than 25 µM at Pim2 kinase, 10 to 25 µM on Pim3 kinase and greater than 25000 nM in assay [1].

For `NC(=O)c1ccc(N2CCCCC2)c(NC(=O)c2nccnc2N)c1` [Example 129, 3-amino-N-(5-carbamoyl-2-piperidin-1-ylphenyl)pyrazine-2-carboxamide], in assay [1], the IC50 was 1000 to 10000 nM.

On to `Nc1nccnc1C(=O)Nc1[nH]c(=O)ncc1-c1ccco1` [Example 136, 3-amino-N-[5-(2-furyl)-2-oxo-2,3-dihydropyrimidin-4-yl]-pyrazine-2-carboxamide], for which the IC50 was less than 1 µM on Pim1 kinase (setting [2]), less than 1 µM on Pim2 kinase, less than 1 µM at Pim3 kinase and 1000 to 10000 nM in assay [1].

In the case of `Nc1nccnc1C(=O)Nc1[nH]c(=O)ncc1-c1cccs1` [Example 137, 3-amino-N-[2-oxo-5-(2-thienyl)-2,3-dihydropyrimidin-4-yl]-pyrazine-2-carboxamide], the half-inhibitory concentration (IC50) on Pim1 kinase (setting [2]) is less than 1 µM; at Pim2 kinase, less than 1 µM; on Pim3 kinase, less than 1 µM; in assay [1], less than 1000 nM.

`Nc1nccnc1C(=O)Nc1[nH]c(=O)ncc1-c1nccs1` [Example 138, 3-amino-N-[2-oxo-5-(1,3-thiazol-2-yl)-2,3-dihydro-pyrimidin-4-yl]pyrazine-2-carboxamide]: the half-maximal inhibitory concentration (IC50) was less than 1 µM on Pim1 kinase (setting [2]), less than 1 µM at Pim2 kinase, less than 1 µM at Pim3 kinase and greater than 25000 nM in assay [1].

Regarding `Cn1cccc1-c1cnc(=O)[nH]c1NC(=O)c1nccnc1N` [Example 139, 3-amino-N-[5-(1-methyl-1H-pyrrol-2-yl)-2-oxo-2,3-dihydro-pyrimidin-4-yl]pyrazine-2-carboxamide], the IC50 is less than 1 µM at Pim1 kinase (setting [2]), less than 1 µM at Pim2 kinase, less than 1 µM on Pim3 kinase and less than 1000 nM in assay [1].

Consider `Nc1nccnc1C(=O)Nc1[nH]c(=O)ncc1-c1ccccn1` [Example 140, 3-amino-N-(2-oxo-5-pyridin-2-yl-2,3-dihydropyrimidin-4-yl)-pyrazine-2-carboxamide], for which the concentration for half-maximal inhibition (IC50) is less than 1 µM at Pim1 kinase (setting [2]), less than 1 µM at Pim2 kinase, less than 1 µM at Pim3 kinase and 1000 to 10000 nM in assay [1].

With `Nc1ncc(Br)nc1C(=O)Nc1[nH]c(=O)ncc1-c1ccco1` [Example 141, 3-amino-6-bromo-N-[5-(2-furyl)-2-oxo-2,3-dihydro-pyrimidin-4-yl]pyrazine-2-carboxamide], the IC50 is less than 1 µM at Pim1 kinase (setting [2]), less than 1 µM on Pim2 kinase, less than 1 µM at Pim3 kinase and 1000 to 10000 nM in assay [1].

Consider `Cn1cccc1-c1cnc(=O)[nH]c1NC(=O)c1nc(Br)cnc1N` [Example 144, 3-amino-6-bromo-N-[5-(1-methyl-1H-pyrrol-2-yl)-2-oxo-2,3-dihydropyrimidin-4-yl]-pyrazine-2-carboxamide], for which the half-inhibitory concentration (IC50) in assay [1] lay within 1000 to 10000 nM.

On to `Nc1nccnc1C(=O)Nc1[nH]c(=O)ncc1N1CCC(F)CC1` [Example 149, 3-amino-N-[5-(4-fluoro-piperidin-1-yl)-2-oxo-2,3-dihydropyrimidin-4-yl]pyrazine-2-carboxamide], for which the 50% inhibitory concentration (IC50) in assay [1] fell in the range of 1000 to 10000 nM.

Take `Nc1nccnc1C(=O)Nc1[nH]c(=O)ncc1N1CCC(C(F)(F)F)CC1` [Example 152, 3-amino-N-{2-oxo-5-[4-(trifluoromethyl)piperidin-1-yl]-2,3-dihydropyrimidin-4-yl}-pyrazine-2-carboxamide]: the IC50 on Pim1 kinase (setting [2]) was less than 1 µM; on Pim2 kinase it was less than 1 µM; at Pim3 kinase, less than 1 µM; in assay [1], less than 1000 nM.

`Nc1ncc(Br)nc1C(=O)Nc1[nH]c(=O)ncc1N1CCC(C(F)(F)F)CC1` [Example 153, 3-amino-6-bromo-N-{2-oxo-5-[4-(trifluoromethyl)piperidin-1-yl]-2,3-dihydropyrimidin-4-yl}-pyrazine-2-carboxamide]: the IC50 on Pim1 kinase (setting [2]) was less than 1 µM; at Pim2 kinase, less than 1 µM; on Pim3 kinase, less than 1 µM; in assay [1] it was greater than 25000 nM.

As to `Nc1nccnc1C(=O)Nc1[nH]c(=O)ncc1N1CCCC(F)C1` (stereo not shown) [Example 154, 3-amino-N-[5-(3-fluoro-piperidin-1-yl)-2-oxo-2,3-dihydropyrimidin-4-yl]pyrazine-2-carboxamide], the concentration for half-maximal inhibition (IC50) at Pim1 kinase (setting [2]) is less than 1 µM; at Pim2 kinase, less than 1 µM; on Pim3 kinase, less than 1 µM; in assay [1], less than 1000 nM.

For `Nc1nccnc1C(=O)Nc1[nH]c(=O)ncc1N1CCC(F)(F)CC1` [Example 156, 3-amino-N-[5-(4,4-difluoro-piperidin-1-yl)-2-oxo-2,3-dihydropyrimidin-4-yl]pyrazine-2-carboxamide], the concentration for half-maximal inhibition (IC50) on Pim1 kinase (setting [2]) was less than 1 µM; at Pim2 kinase it was less than 1 µM; at Pim3 kinase, less than 1 µM; in assay [1] it was 1000 to 10000 nM.

Turning to `N#Cc1ccc(N2CCCCC2)c(NC(=O)c2nccnc2N)c1` [Example 171, 3-amino-N-(5-cyano-2-(piperidin-1-yl)phenyl)pyrazine-2-carboxamide], the concentration for half-maximal inhibition (IC50) on Pim1 kinase (setting [2]) is less than 1 µM; at Pim2 kinase it was 1 to 10 µM; at Pim3 kinase, less than 1 µM; in assay [1], 10000 to 25000 nM.

Turning to `NCCC(=O)N1CCN(c2ccncc2NC(=O)c2nc(Br)cnc2N)CC1` [Example 178, 3-amino-N-{4-[4-(3-amino-propanoyl)piperazin-1-yl]-pyridin-3-yl}-6-bromopyrazine-2-carboxamide], the IC50 is less than 1 µM on Pim1 kinase (setting [2]), less than 1 µM on Pim2 kinase, less than 1 µM at Pim3 kinase and less than 1000 nM in assay [1].

Turning to `NCC(=O)N1CCN(c2ccncc2NC(=O)c2nccnc2N)CC1` [Example 189, 3-amino-N-{4-[4-(amino-acetyl)piperazin-1-yl]pyridin-3-yl}pyrazine-2-carboxamide], the half-inhibitory concentration (IC50) was less than 1 µM against Pim1 kinase, 1 to 10 µM at Pim2 kinase, less than 1 µM on Pim3 kinase and less than 1000 nM in assay [1].

For the compound `Nc1nccnc1C(=O)Nc1cnccc1N1CCC(N)C1` (stereo not shown) [Example 190, 3-amino-N-[4-(3-amino-pyrrolidin-1-yl)pyridin-3-yl]-pyrazine-2-carboxamide], in assay [1], the 50% inhibitory concentration (IC50) was greater than 25000 nM.

`Nc1nccnc1C(=O)Nc1cnccc1N1CCNCC1` [Example 191, 3-amino-N-(4-piperazin-1-yl-pyridin-3-yl)pyrazine-2-carboxamide]: the half-inhibitory concentration (IC50) was less than 1 µM at Pim1 kinase, greater than 25 µM at Pim2 kinase, 1 to 10 µM on Pim3 kinase and less than 1000 nM in assay [1].

For `NC[C@H]1CCCN1c1ccncc1NC(=O)c1nccnc1N` [Example 192, 3-amino-N-{4-[(2R)-2-(amino-methyl)pyrrolidin-1-yl]pyridin-3-yl}pyrazine-2-carboxamide], the IC50 on Pim1 kinase (setting [2]) is greater than 25 µM; on Pim2 kinase, greater than 25 µM; at Pim3 kinase it was greater than 25 µM; in assay [1], greater than 25000 nM.

Turning to `NCCOc1ccncc1NC(=O)c1nccnc1N` [Example 194, 3-amino-N-[4-(2-amino-ethoxy)pyridin-3-yl]pyrazine-2-carboxamide], the IC50 at Pim1 kinase (setting [2]) is greater than 25 µM; at Pim2 kinase, greater than 25 µM; on Pim3 kinase it was greater than 25 µM; in assay [1], greater than 25000 nM.

For the compound `Nc1ncc(-c2ccncc2)nc1C(=O)Nc1cnccc1N1CCCC(N)C1` (stereo not shown) [Example 354, 3-amino-6-pyridin-4-yl-pyrazine-2-carboxylic acid (3-amino-3,4,5,6-tetrahydro-2H-[1,4′]bipyridinyl-3′-yl)-amide], the 50% inhibitory concentration (IC50) in assay [1] fell in the range of 1000 to 10000 nM.
